In US7687547B2, “Diphenyl ether antimicrobial compounds” (Research Foundation of State University of New York, priority 2004, dated 2010) one finds MIC99 and IC50 data, which are given here for 5 compounds.

The test system of assay [1] is Mycobacterium tuberculosis strain H37Rv. Nature of the assay: MIC99 microplate dilution growth inhibition. The assay is classed as cell-based. To be noted: M. tuberculosis H37Rv, 7H9 broth, 37° C., 3-5 days, lowest concentration inhibiting visible growth.
Another assay deals with InhA (Mycobacterium tuberculosis, UniProt P9WGR1). Nature of the assay: InhA enzyme inhibition IC50 (NADH oxidation at 340 nm, DD-CoA substrate). In kind it is biochemical, M. tuberculosis.
The mark [2] stands for this setting: InhA, 250 μM NADH, DD-CoA substrate, 25° C., pH 6.8, read-out: IC50.

In brackets after ≈: the same amount, converted by molar mass. Like-named read-outs stand apart in the source and are kept apart here.

InhA, sequence (P9WGR1 whole entry, looked up): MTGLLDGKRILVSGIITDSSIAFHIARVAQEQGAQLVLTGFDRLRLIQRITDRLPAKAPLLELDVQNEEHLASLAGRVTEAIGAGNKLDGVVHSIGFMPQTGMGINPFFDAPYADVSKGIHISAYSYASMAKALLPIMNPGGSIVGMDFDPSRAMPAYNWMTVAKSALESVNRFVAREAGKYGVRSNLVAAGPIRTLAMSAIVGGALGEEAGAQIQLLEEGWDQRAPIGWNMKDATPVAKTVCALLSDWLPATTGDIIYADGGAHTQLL
Experimental for InhA: IC50 values were determined by measuring the enzyme activity at different inhibitor concentrations. The experimental data were analyzed using Equation 1, where I is the inhibitor concentration and Y is fraction activity. Y=1/(1+[I]/IC50) (1)
All experiments were carried out on a CARY-100 Bio (Varian) spectrophotometer at 25° C. The buffer used was 30 mM PIPES, 150 mM NaCl, pH 6.8. Kinetic parameters were determined spectrophotometrically by following the oxidation of NADH to NAD^+ at 340 nm (ε=6.3 nM^−1 cm^−1). Trans-2-dodecenoyl-CoA (DD-CoA) was used as a substrate. Two sets of conditions were used for the IC50 determinations.
For inhibitors with IC50 values above 0.2 μM, reaction mixtures contained 250 μM NADH, 74 nM InhA, and 25 μM DD-CoA. […] In each case, the inhibitor concentration was varied over the range of 0-200 μM.

`CCCCc1ccc(Oc2ccccc2)c(O)c1` [-(n-C4H9), 5-butyl-2-phenoxyphenol] came in with an MIC99 in assay [1] of 0.93 µM (≈ 0.225 µg/mL). Also, the IC50 on InhA (setting [2]) was found to be 80 nM.
For the compound `CCCCCc1ccc(Oc2ccccc2)c(O)c1` [-(n-C5H11), 5-pentyl-2-phenoxyphenol], the MIC99 in assay [1] is 0.93 µM (≈ 0.238 µg/mL). The IC50 on InhA (setting [2]) was 17 nM.
`CCCCCCc1ccc(Oc2ccccc2)c(O)c1` [-(n-C6H13), 5-hexyl-2-phenoxyphenol]: in assay [1], the MIC99 was 0.93 µM (≈ 0.251 µg/mL). At InhA, this compound returned an IC50 of 10 nM.
`CCCCCCCCc1ccc(Oc2ccccc2)c(O)c1` [-(n-C8H17), 5-octyl-2-phenoxyphenol]: on InhA (setting [2]), the IC50 worked out at 5 nM.
`CCc1ccc(Oc2ccccc2)c(O)c1` [—C2H5, 5-ethyl-2-phenoxyphenol]: the MIC99 in assay [1] was 3.75 µM (≈ 0.803 µg/mL). Besides, the half-inhibitory concentration (IC50) at InhA (setting [2]) amounted to 2000 nM.
